Measurements reported in patent publication US12251366B1, “Sulforaphane-cysteine for wound healing in diabetic subjects” (KUWAIT UNIVERSITY, priority 2024, dated 2025).

Tested on: fibroblasts (CF, DF)
Test: Proliferation of fibroblasts from control and diabetic wounds
Format: cell-based, rat
Conditions: 1.5 μM
Experimental: Successful wound healing necessitates a series of tightly coordinated and overlapping processes including inflammation, new tissue formation and remodeling. Fibroblasts, in response to growth factors-released mostly by macrophages, migrate to the site of injury, where they proliferate and lay down the extracellular matrix (ECM). Consequently, this facilitates cell migration and tissue reconstruction. The effect of a therapeutic concentration of SFN-Cys (1.5 μM) was investigated on the proliferation of fibroblasts isolated from the granulation tissue of control and diabetic wounds. Similarly, the effect of SFN-Cys on cell migration in the in vitro wound closure assay was also considered. […] Accordingly, in vivo wound closure properties of SFN-Cys were examined using an excisional wound healing rat model. SFN-Cys containing Pluronic acid was topically applied to the wound at a dose of 1.5 μmol concentration and the wound closure area was digitally photographed and quantified. Digital photographs were obtained on day-0 through day-7 of post wounding. […] In this context, the wound healing time-course was faster in SFN-Cys containing Pluronic acid than the Pluronic acid alone (FIG. 3C). […] VEGF is a well-established enhancer of the proliferative phase of healing. […]

With C[S+]([O-])CCCCNC(=S)SCC(N)C(=O)O (stereo not shown) [SFN-Cys, Sulforaphane-Cysteine] the cell proliferation was “enhanced cell proliferation in both CF and DF”.
